# Like-named read-outs stand apart in the source and are kept apart here. No end group written: not given here.
# How the values were obtained:
# [1] = system: Pseudomonas aeruginosa type 1; format: cell-based; details: for Effective Dose Bactericidal pH 5.6 P. aeruginosa Molar Concentration: Table 5
# Protocol: Bactericidal activity can be evaluated against a variety of bacteria such as Pseudomonas spp including aeruginosa and P. cepacia, E. coli B, and Staphylococcus aureus. The preferred organism is P. aeruginosa. Bactericidal activity is determined by identifying the effective dose for killing as the molar concentration of the peptide which results in at least a 60% killing of the bacteria, as determined by standard methods. Preferably, the peptide has an effective dose at a concentration of about 1×10^-4 M to about 1×10^-10 M, and more preferably 1×10^-7 M to 1×10^-9M . […] The effective dose for bactericidal activity of B/PI is seen at about […] . Bactericidal activity can also be determined by calculating a lethal dose 50 (LD50) using standard methods. The LD50 is that amount of peptide or protein that kills 50% of the bacteria when measured using standard dose response methods. A bactericidal peptide preferably has an LD50 of about 10^-4 M to about 10^-9 M , more preferably about 10^-7 to 10^-9 M .
# (§1) The synthetically produced peptides were assayed for bactericidal activity against Pseudomonas aeruginosa, type 1, P. cepacia ATCC 25608, E. coli B, and Staphylococcus aureus 502A by standard methods.
# (§2) Pseudomonas aeruginosa type 1 is a clinical isolate maintained in the laboratory since 1972. The isolate remains a smooth strain and was serotyped by the scheme of Homma. Homma, Jpn. J. Exp. Med., 46:329 (1976). A rough strain E. coli B and S. aureus 502A were obtained from Paul Quie, University of Minnesota. The characteristics of the S. aureus strain have been described in Shinefield et al., Amer. J. Dis. Chil., 105:646 (1963). Pseudomonas cepacia ATCC 25608 was purchased from the American Type Culture Collection in 1980. S. aureus and E. coli were maintained on nutrient agar plates and the Pseudomonas strains were maintained on blood agar plates.
# (§3) Pyrogen-free solutions were used throughout this assay and all methods which follow. Log phase bacteria were prepared from a culture in brain heart infusion broth as previously described except that bacteria were washed and resuspended in saline with adjustment to an optical density at 650 nm which would yield 3×10^8 CFU/ml. Bacteria were then diluted 1:10 in 0.08M citrate phosphate buffer, pH 5.6 or pH 7.0, for use in the assay. S. aureus rapidly lost viability in the pH 5.6 buffer and was studied only at pH 7.0. Bactericidal activity was determined by dose response and where an LD50 is indicated, it was determined by linear regression.
# P. cepacia ATCC 25608 = assay: Bactericidal assay, P. cepacia; format: cell-based, Pseudomonas cepacia; details: P. cepacia
# Protocol: as §1, §2, §3
# E. coli B = assay: Bactericidal assay, E. coli B; format: cell-based
# Protocol: as §1, §2, §3
# [2] = system: Staphylococcus aureus 502A; format: cell-based
# Protocol: as §1, §2, §3
# Human lung fibroblasts = assay: Toxicity for human lung fibroblasts, trypan blue exclusion; format: cell-based; details: 30 minutes; for Percent Viability DMEM: DMEM plus 10% FCS; for Percent Viability PBS: pH 7.4
# Protocol: The synthetic peptides were assayed for toxicity to cultured eukaryotic cells. Human lung fibroblasts were grown in monolayers in Dulbecco's Modified Eagles' Medium (DMEM) with 10% fetal calf serum (FCS) and originated as primary cultures of lung mesenchymal cells. The cells were trypsinized, washed with either DMEM plus FCS or phosphate-buffered saline (PBS), pH 7.4, and incubated with peptide at a final cell concentration of 1×10^7 /ml. Nine volumes of cell suspension were diluted with one volume of 0.4% trypan blue and the cells were counted with a hemocytometer, while also determining the fraction of cells which were increased in permeability to dye. There was no significant loss of cell number due to exposure of the fibroblasts to peptide.
# ^a Viability was determined by trypan blue exclusion following
# incubation of cells with peptide for 30 minutes in DMEM plus 10% FCS or i
# E. coli 055: B5 LPS = assay: Limulus amoebocyte lysate assay, neutralization of endotoxin; format: biochemical; details: for Effective Dose Endotoxin Neutralization (Molar Concentration): Table 8, LAL
# Text: The peptide selected can also have endotoxin neutralizing activity. […] Endotoxin neutralizing activity can also be measured by calculating an inhibitory dose 50 […] using standard does response methods. An inhibitory dose 50 is that amount of peptide that can inhibit 50% of the activity of endotoxin. Endotoxin activity can also be measured by determining the amount of release of tumor necrosis factor alpha (TNFα) from a macrophage cell line or by evaluating the symptoms of shock in animals. Peptides preferably neutralized endotoxin at a molar concentration of about 1×10^-4 M to about 10^-8 M , more preferably about 10^-5 M to about 10^-6 M .
# The ability of synthetic peptides to neutralize endotoxin was detected with the E-TOXATE kit manufactured by Sigma Chemicals, St. Louis, Mo. […] Peptide was incubated with LPS at room temperature for 10 minutes in 100 μl of a 1:2 dilution of pyrogen-free saline, pH 6.4. The reaction was started by addition of 100 μl of amoebocyte lysate and the final volume was 200 μl.
# ^a The dose of peptide required to inhibit clotting of LAL by 100%.
# Each tube contained 0.04 endotoxin units of E. coli LPS.
# [3] = P. aeruginosa, pH 5.6, 1.2 × 10^-4 M
# [4] = Table 7, dose required to inhibit clotting of LAL by 100%, 0.04 endotoxin units of E. coli LPS
compound,measurement,setting,value
"CC(C)C[C@H](NC(=O)[C@H](Cc1ccccc1)NC(=O)[C@H](CCCNC(=N)N)NC(=O)[C@H](CCCCN)NC(=O)[C@H](CCC(N)=O)NC(=O)[C@H](C)NC(=O)[C@H](CCCCN)NC(=O)[C@H](Cc1c[nH]c2ccccc12)NC(=O)[C@H](CCCCN)NC(=O)[C@@H](N)CS)C(=O)N[C@@H](CCCCN)C(=O)O [Peptide 2, ckwkaqkrflk]",% Killing of 5 × 10^6 Bacteria,"[1]; type 1, 1.5e-6 M, pH 5.6",83%
same,% Killing of 5 × 10^6 Bacteria,"P. cepacia ATCC 25608; pH 5.6, 1.5 × 10^-5 M",80%
same,% Killing of 5 × 10^6 Bacteria,"P. cepacia ATCC 25608; pH 7.0, 1.5 × 10^-5 M",78%
same,% Killing of 5 × 10^6 Bacteria,"E. coli B; E. coli B, pH 5.6, 1.5 × 10^-5 M, listed as C#90-99",98%
same,% Killing of 5 × 10^6 Bacteria,"E. coli B; E. coli, pH 7.0, 1.5 × 10^-5 M",90%
same,% Killing of 5 × 10^6 Bacteria,"[2]; 502A, 3e-5 M, pH 7",95%
same,Percent Viability DMEM,Human lung fibroblasts; 1.5 × 10^-5 M,98.4%
same,Percent Viability PBS,Human lung fibroblasts; 1.5 × 10^-5 M,94.7%
"EFYSENHHNPKWKAQKRFLK [Peptide 18, efysenhhnpkwkaqkrflk]",% Killing of 5 × 10^6 Bacteria,"[1]; type 1, 3.0e-5 M, pH 5.6",79%
same,Percent Viability DMEM,Human lung fibroblasts; 1.5 × 10^-4 M,98.8%
same,Percent Viability PBS,Human lung fibroblasts; 1.5 × 10^-4 M,95.6%
cefysenhhnp(g) [Peptide 3],% Killing of 5 × 10^6 Bacteria,[1]; [3],0%
same,% Killing of 5 × 10^6 Bacteria,"[1]; P. aeruginosa, pH 7.0, 1.2 × 10^-4 M",0%
same,Effective Dose Bactericidal pH 5.6 P. aeruginosa Molar Concentration,[1]; pH 5.6,-- (not active at concentrations of 1.2 × 10^-4 M or less)
same,% Killing of 5 × 10^6 Bacteria,"P. cepacia ATCC 25608; pH 5.6, 1.2 × 10^-4 M",0%
same,% Killing of 5 × 10^6 Bacteria,"P. cepacia ATCC 25608; pH 7.0, 1.2 × 10^-4 M",0%
same,% Killing of 5 × 10^6 Bacteria,"E. coli B; E. coli, pH 5.6, 1.2 × 10^-4 M",0%
same,% Killing of 5 × 10^6 Bacteria,"E. coli B; E. coli, pH 7.0, 1.2 × 10^-4 M",0%
same,% Killing of 5 × 10^6 Bacteria,"[2]; S. aureus, pH 7.0, 1.2 × 10^-4 M",0%
same,peptide concentration which neutralized endotoxin (100% inhibition of LPS-induced gelation),E. coli 055: B5 LPS; 0.04 endotoxin units of E. coli 055: B5 LPS,120 µM
same,Effective Dose (μg/0.2 ml),E. coli 055: B5 LPS; [4],34 μg/0.2 ml
same,Effective Dose M (× 10^-4),E. coli 055: B5 LPS; [4],1.2 M (× 10^-4)
same,Effective Dose Endotoxin Neutralization (Molar Concentration),E. coli 055: B5 LPS,120 µM
"CC(C)C[C@H](NC(=O)[C@H](Cc1ccccc1)NC(=O)[C@H](CCCNC(=N)N)NC(=O)[C@H](CCCCN)NC(=O)[C@H](CCC(N)=O)NC(=O)[C@H](C)NC(=O)[C@H](CCCCN)NC(=O)[C@H](Cc1c[nH]c2ccccc12)NC(=O)[C@@H](N)CCCCN)C(=O)N[C@@H](CCCCN)C(=O)O [Peptide 5, kwkaqkrflk]",% Killing of 5 × 10^6 Bacteria,"[1]; type 1, 1.5e-5 M, pH 5.6",75%
same,LD50 for P. aeruginosa,"[1]; type 1, pH 5.6",8.2 µM
same,% Killing of 5 × 10^6 Bacteria,"E. coli B; E. coli B, pH 5.6, 3.0 × 10^-5 M, listed as #90-99",31%
same,Percent Viability DMEM,Human lung fibroblasts; 1.5 × 10^-4 M,98.0%
same,Percent Viability PBS,Human lung fibroblasts; 1.5 × 10^-4 M,89.4%
"CEFYSENHHNPKWKAQKRFLK [Peptide 17, cefysenhhnpkwkaqkrflk]",% Killing of 5 × 10^6 Bacteria,"[1]; type 1, 3.0e-6 M, pH 5.6",74%
same,% Killing of 5 × 10^6 Bacteria,"E. coli B; E. coli B, pH 5.6, 3.0 × 10^-5 M",71%
same,Percent Viability DMEM,Human lung fibroblasts; 1.5 × 10^-5 M,99.2%
same,Percent Viability PBS,Human lung fibroblasts; 1.5 × 10^-5 M,92.3%
kisgkwkaqkrflkmsgnf [Peptide 35],% Killing of 5 × 10^6 Bacteria,"[1]; P. aeruginosa, pH 5.6, 1.5 × 10^-7 M",58%
same,Effective Dose Bactericidal pH 5.6 P. aeruginosa Molar Concentration,[1]; pH 5.6,1.5 × 10^-7 M
same,Effective Dose Endotoxin Neutralization (Molar Concentration),E. coli 055: B5 LPS,450 µM
same,neutralization of endotoxin in the LAL (in words),E. coli 055: B5 LPS; highest concentration tested 4.5×10^-4 M,did not neutralize endotoxin
sdsflkikhlgkghysfysmdirefq [Peptide 12],% Killing of 5 × 10^6 Bacteria,"[1]; P. aeruginosa, pH 5.6, 1.5 × 10^-5 M",58%
same,Effective Dose Bactericidal pH 5.6 P. aeruginosa Molar Concentration,[1]; pH 5.6,1.5 × 10^-5 M
same,Effective Dose Endotoxin Neutralization (Molar Concentration),E. coli 055: B5 LPS,75 µM
wkkfkqralk [Peptide 19],% Killing of 5 × 10^6 Bacteria,[1]; [3],65%
same,Effective Dose Bactericidal pH 5.6 P. aeruginosa Molar Concentration,[1]; pH 5.6,1.2 × 10^-4 M
same,"bactericidal activity, fold reduced versus the 90-99 peptide","[1]; pH 5.6, randomized sequence",8 fold
same,Effective Dose Endotoxin Neutralization (Molar Concentration),E. coli 055: B5 LPS,-- (not active at concentrations of 4.5 × 10^-4 M or less)
nanikisgkwkaqkrflkmsgnfdlsi [Peptide 22],% Killing of 5 × 10^6 Bacteria,"[1]; P. aeruginosa, pH 5.6, 6.0 × 10^-8 M",74%
same,Effective Dose Bactericidal pH 5.6 P. aeruginosa Molar Concentration,[1]; pH 5.6,6.0 × 10^-8 M
same,Effective Dose Endotoxin Neutralization (Molar Concentration),E. coli 055: B5 LPS,30 µM
"ktkckflkkc [Peptide 25, reference compound]",% Killing of 5 × 10^6 Bacteria,"[1]; P. aeruginosa, pH 5.6, 6.0 × 10^-6 M",56%
same,Effective Dose Bactericidal pH 5.6 P. aeruginosa Molar Concentration,[1]; pH 5.6,6.0 × 10^-6 M
same,Effective Dose Endotoxin Neutralization (Molar Concentration),E. coli 055: B5 LPS,-- (not active at concentrations of 4.5 × 10^-4 M or less)
"ckwkaqkrflkc (CKWKAQKRFLKC; not fully specified (bridges); also: cyclic, kind and places of ring not given here) [Peptide 20a]",% Killing of 5 × 10^6 Bacteria,"[1]; P. aeruginosa, pH 5.6, 3.0 × 10^-6 M",76%
same,Effective Dose Bactericidal pH 5.6 P. aeruginosa Molar Concentration,[1]; pH 5.6,3.0 × 10^-6 M
same,Effective Dose Endotoxin Neutralization (Molar Concentration),E. coli 055: B5 LPS,-- (not active at concentrations of 4.5 × 10^-4 M or less)
kkkffrlakq [Peptide 27],% Killing of 5 × 10^6 Bacteria,"[1]; P. aeruginosa, pH 5.6, 3.0 × 10^-5 M",49%
same,Effective Dose Bactericidal pH 5.6 P. aeruginosa Molar Concentration,[1]; pH 5.6,3.0 × 10^-5 M
same,bacterial killing activity compared with parent peptide (in words),"[1]; pH 5.6, P. aeruginosa",little or no effect
same,Effective Dose Endotoxin Neutralization (Molar Concentration),E. coli 055: B5 LPS,-- (not active at concentrations of 4.5 × 10^-4 M or less)
